Data published in US9045415B2, “Targeting of EWS-FLI1 as anti-tumor therapy” (Georgetown University, priority 2006, dated 2015).
Read-outs that look alike come from different tables or passages of the source. No end group written: not given here. *: point of attachment. FITC = O=C1OC2(c3ccc(O)cc3Oc3cc(O)ccc32)c2ccc(NC(=S)*)cc21

Columns and labels:
recombinant EWS-FLI1 = biological target: T1, recombinant EWS-FLI1 (Homo sapiens, UniProt Q01543+Q01844); assay: Surface plasmon resonance (Biacore) binding to EWS-FLI1; conditions: read-out: KD
T1 sequence (Q01543 1-452): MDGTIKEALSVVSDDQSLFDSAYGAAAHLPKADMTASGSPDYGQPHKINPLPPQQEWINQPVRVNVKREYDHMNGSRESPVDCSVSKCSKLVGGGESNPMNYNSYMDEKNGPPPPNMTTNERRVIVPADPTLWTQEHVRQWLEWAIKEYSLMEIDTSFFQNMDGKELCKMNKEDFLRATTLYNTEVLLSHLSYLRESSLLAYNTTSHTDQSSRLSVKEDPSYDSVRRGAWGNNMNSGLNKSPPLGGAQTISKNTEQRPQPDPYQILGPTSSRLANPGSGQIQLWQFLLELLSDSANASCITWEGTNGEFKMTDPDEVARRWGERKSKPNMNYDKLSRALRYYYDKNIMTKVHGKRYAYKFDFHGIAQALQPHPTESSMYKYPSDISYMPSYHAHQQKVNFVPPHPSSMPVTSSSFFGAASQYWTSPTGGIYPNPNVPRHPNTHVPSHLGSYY
T1 sequence (Q01844 1-656): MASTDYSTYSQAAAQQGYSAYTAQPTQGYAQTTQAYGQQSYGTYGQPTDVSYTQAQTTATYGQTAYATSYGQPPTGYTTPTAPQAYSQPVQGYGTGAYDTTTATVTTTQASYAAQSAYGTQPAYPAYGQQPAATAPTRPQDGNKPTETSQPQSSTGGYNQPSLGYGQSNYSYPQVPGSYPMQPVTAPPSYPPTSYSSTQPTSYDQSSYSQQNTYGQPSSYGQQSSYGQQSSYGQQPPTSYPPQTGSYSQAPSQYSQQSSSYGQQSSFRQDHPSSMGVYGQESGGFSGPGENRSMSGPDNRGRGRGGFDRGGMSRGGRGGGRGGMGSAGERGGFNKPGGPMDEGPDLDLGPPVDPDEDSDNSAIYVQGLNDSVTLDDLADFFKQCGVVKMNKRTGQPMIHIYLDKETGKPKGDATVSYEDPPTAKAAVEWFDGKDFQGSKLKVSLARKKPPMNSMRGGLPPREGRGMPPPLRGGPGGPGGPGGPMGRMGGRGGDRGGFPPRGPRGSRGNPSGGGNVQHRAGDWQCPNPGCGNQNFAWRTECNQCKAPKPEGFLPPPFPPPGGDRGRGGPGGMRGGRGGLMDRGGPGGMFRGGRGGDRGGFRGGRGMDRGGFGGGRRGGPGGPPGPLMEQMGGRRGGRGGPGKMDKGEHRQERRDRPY
Procedure: Antp is conjugated to the amino terminal of all peptides used in these studies. Recombinant EWS-FLI1 (MW 55 kDa) was covalently linked to a CM5 chip at a density of 1200 RU, and E9RP (MW 4 kDa) was evaluated for binding. The E9RP analyte concentrations ranged from 0.03-30 μM, and all are shown in duplicate. E9RP bound to EWS-FLI1 with a KD of 4.0 μM.
An assay that will identify whether a peptide can disrupt RHA from interacting with EWS-FLI1 was developed. The Biacore device is a biosensor that utilizes surface plasmon resonance (SPR) to measure the strength of molecular interactions. SPR is the sensitive measurement of […] light based upon alterations of surface characteristics that change with molecules binding to a surface. The Biacore device combines SPR with a microfluidic system.
The KD of E9RP binding to EWS-FLI1 was calculated to be 4.0 μM (FIG. 4).
A surface plasmon resonance assay using the Biacore T100 was established with EWS-FLI1, prepared in our laboratory as previously published (Uren, A., Tcherkasskaya, O. & Toretsky, J. A. Recombinant EWS-FLI1 oncoprotein activates transcription. Biochemistry 43, 13579-13589 (2004)). DNA oligonucleotides were used to quality control the proper conformation of EWS-FLI1 on the surface of a CM5 chip. Small molecules obtained from the Developmental Therapeutics Program of the National Cancer Institute, NIH (http://dtp.nci.nih.gov/branches/dscb/repo_open.html) were prioritized based upon their molecular weight and solubility. An initial screening of molecules was performed at 1 or 10 μM compound, based on solubility. We used a model that compares the actual binding maximum (actual RU) with the theoretical binding maximum (RUtheor). […] Hits (RUactual to RUtheor of 0.7-2.0) were then reviewed by a team of medicinal chemists and those with structural potentials were selected for further study. Selected molecules were tested in vitro in a solution coimmunoprecipitation assay using recombinant EWS-FLI1 and GST-RHA (647-1075).

ESFT cells TC71 = assay: Xenografts of TC71 cells transfected with E9R expression plasmids; type: in vivo, mice; conditions: mutated control peptide vs wild-type
Procedure: ESFT cells TC71 were transfected with pGE9R (wild-type sequence peptide (SEQ ID NO: 29)) or pGE9R-D5A (control, mutated peptide; D5A (SEQ ID NO: 31)). In FIG. 10A, fluorescent micrographs of transfected cells after 4 days in culture are presented. […] Bar equals 300 microns. In FIG. 10B, each group contains six mice. Mice legs were measured every 2-3 days. Tumors appeared in 2 weeks. The experiment was terminated after 26 days when the largest tumor caused the mouse to limp. Tumor volumes were calculated according to (D×d2/6)×π formula, where large diameter of tumor mass is D and small diameter is d. 2-way ANOVA analysis, followed by Bonferroni correction for multiple variables, the difference in the two growth curves was highly significant, p=0.016.
The ability of the E9R peptide sequence to prevent ESFT tumorigenesis in a pilot murine xenograft experiment was determined. As a control peptide, the same mutation that prevented wild-type RHA from binding to EWS-FLI1 (D827A, noted in the 10-mer peptide as E9R-D5A) was created. ESFT cells were transfected with either pGE9R or pGE9R-D5A by electroporation. A transfection efficiency of greater than 80% using fluorescent microscopy (FIG. 10A) was observed. […] Every two to three days, each animal's thigh was measured in three dimensions, and tumor volumes were calculated. […]

TC32 cells = assay: Monolayer cell growth (MTT or WST), TC32; type: cell-based; conditions: TC32 monolayer, 10 μM
Procedure: (§1) In FIG. 13A, recombinant EWS-FLI1 was treated with NSC635437 for 30 minutes. GST-RHA (630-1020) was added and the complexes were then precipitated with antibody to EWS-FLI1 and Protein G beads. Resolved complexes showing the immunoprecipitated complex control without compound are in lanes 3 (0.1% DMSO) and 5 (0.01% DMSO). […] ESFT TC32 (◯) and neuroblastoma SK-N-AS (▪) were grown for 72 hours in the continuous presence of NSC635437. Cells were incubated in MTT reagent for 4 hours and the dried precipitate was dissolved isopropanol and the absorbance read at 570 nm. Each cell line was standardized to the growth of the DMSO control.
(§2) FIG. 30 provides data to show E9R peptide prevents EWS-FLI1 binding to RHA with specific detrimental effects upon ESFT growth and transformation. […] Scale bar equals 20 μm. […] Only expression of EGFP-E9R in TC71 reduced anchorage independent growth. […] Scale bar equals 20 μm.
FIG. 33 provides data showing YK-4-279 is potent and specific inhibitor of ESFT. […] Cell number was measured by MTT or WST reduction after seven days in culture. […] FIG. 33D cell lines expressing EWS-FLI1 compared to non-EWS-FLI1 malignant cell lines following 3 days in culture to establish the IC50 using WST assay. […] Graph plots level of fluorescence in treated divided by untreated lysate. […] Scale bar equals 200 μm.

[1] = test system: neuroblastoma SKNAS cells; assay: Monolayer cell growth, neuroblastoma; type: cell-based; conditions: SKNAS monolayer
Source text: FIGS. 8A-E show E9RP inhibits ESFT cell growth. In FIGS. 8A and 8B, E9RP is the peptide region of RHA (SEQ ID NO:29) fused to the Penetratin peptide (from the Antennapedia homeodomain; SEQ ID NO:34) and contains amino-terminal fluorescein (FITC). […] Neither lipids nor electricity were used for transduction of peptides into cells. Confocal microscopy identified peptide throughout cells with nuclear uptake. Nuclear uptake was confirmed by DAPI staining. […] Cell lines were placed in 96-well plates with either vehicle alone (●), or E9RP (10 μM) on days 0, 3 and 5 (▴). No lipid or other transfection method was utilized. This represents two experiments with similar results. FIG. 8D depicts dose response of ESFT 1 to either wild-type or single amino-acid mutant peptides. (▪) wild-type E9RP, (E9R (SEQ ID NO:29) fused to the Penetratin peptide (SEQ ID NO:34)), (▾)(E9RP (P2A peptide (SEQ ID NO:30) fused to the Penetratin peptide (SEQ ID NO:34)), (▴)E9RP (D5A peptide (SEQ ID NO:31) fused to the Penetratin peptide (SEQ ID NO:34)). Growth normalized to treating cells with the 16 aa Antp sequence alone (SEQ ID NO:34). FIG. 8E is a comparison of wild-type versus mutant peptides in ESFT and NB cells.
as §1, §2

**Q.** With O=C(CC1(O)C(=O)N(Cc2ccccc2)c2c(Cl)ccc(Cl)c21)c1ccc(Cl)cc1 (centres unmarked) [YK-4-276, 1-Benzyl-4,7-dichloro-3-[2-(4-chlorophenyl-2-oxoethyl)]-3-hydroxyl-1,3-dihydroindol-2-one] as the compound, how does the melting point read?
**A.** The melting point was 154 to 156 °C.

**Q.** And the Kd (recombinant EWS-FLI1; FIG. 24 experiment)?
**A.** The Kd was 10.2 µM.

**Q.** With Cc1ccc(C(=O)CC2(O)C(=O)Nc3c(Cl)ccc(Cl)c32)cc1 (centres unmarked) [YK-4-280, 4,7-Dichloro-3-hydroxyl-3-(2-oxo-2-p-tolylethyl)-1,3-dihydroindol-2-one] as the compound, how does the melting point read?
**A.** The melting point was 189 to 192 °C.

**Q.** With Nc1ccc(C(=O)CC2(O)C(=O)Nc3c(Cl)ccc(Cl)c32)cc1 (centres unmarked) [YK-4-284, 3-[2-(4-Aminophenyl-2-oxoethyl)]-4,7-dichloro-3-hydroxyl 1,3-dihydroindol-2-one] as the compound, how does the melting point read?
**A.** Its melting point is 240 to 243 °C.

**Q.** Which melting point does the source give for O=C(CC1(O)C(=O)Nc2c(Cl)ccc(Cl)c21)c1ccccc1 (centres unmarked) [YK-4-285, 4,7-Dichloro-3-hydroxyl-3-(2-oxo2-phenylethyl)-1,3-dihydroindol-2-one] here?
**A.** The melting point was 198 to 200 °C.

**Q.** Which results are given for O=C(CC1(O)C(=O)Nc2c(Cl)ccc(Cl)c21)c1ccc(O)cc1 (centres unmarked) [YK-4-289, 4,7-Dichloro-3-hydroxyl-3-[2-(4-hydroxyphenyl-2-oxoethyl)]-1,3-dihydroindol-2-one]?
**A.** melting point: 240 to 242 °C; Kd (recombinant EWS-FLI1; FIG. 23 experiment): 6.82 µM; Kd (recombinant EWS-FLI1; FIG. 24 experiment): 9.3 µM

**Q.** For “PPPLAAVIEA [E9R-D5A, control, mutated peptide D5A, expressed from pGE9R-D5A, reference compound]”, which “tumor take-rate and rate of growth” value (ESFT cells TC71) is on record?
**A.** The value was “greater”.

**Q.** For “[FITC]-RQIKIWFQNRRMKWKKPPPLAAVIEA ({FITC}-RQIKIWFQNRRMKWKKPPPLAAVIEA) [E9R(D5A), Antennapedia-E9R-D5A, mutated control peptide, reference compound]”, which “ESFT cell growth with fluorescein conjugated peptides” value (TC32 cells) is on record?
**A.** Its value is “neither the D5A mutated control nor antennapedia peptides alone reduced ESFT cell growth”.

**Q.** And the “growth of neuroblastoma cells with fluorescein conjugated peptides” value [1]?
**A.** The value was “slight increase”.
